Legend:
[1] = system: Preumocystis carinii pneumonia; conditions: especially immunocompromised patients suffering from AIDS; cited from earlier work
[2] = system: Leishmania mexicana amazonensis; assay: In vitro screening for anti-leishmanial activity: inhibition of 3H-thymidine incorporation by promastigotes; assay type: cell-based; conditions: for IC50: PREVIOUS, Table III only
Procedure: Leishmania mexicana amazonensis, strain MHOM/BR/73/M2269 (WR669), promastigotes were grown to early log phase in Schneider's Drosophila Medium (GIBCO) supplemented with 20% heat-inactivated fetal bovine serum GIBCO) and 100 ug/ml gentamicin sulfate [Parasitology 76:309 (1978)]. The assay medium was Schneider's plus 10% fetal bovine serum. Serial dilutions of the compounds of use in the present invention were suspended in the assay medium an prepared in duplicate rows of a 96-well microtiter plate. Parasite suspension (200 ul) at 2.5×10^6 cells/ml was added to each well and each plate was sealed and incubated under air at 25° C. After 24 hours, [methyl-3H] thymidine (20 Ci/mmol) was added to yield 1-2 uCi/well. After an additional 18 hours, the cells were harvested with a Skatron cell harvester onto glass microfiber filters. The filter disks were washed and dried and counted using a Beckman LS3801 scintillation counter. The data on uptake of ^3 H-thymidine was fitted to a logistic-logarithmic concentration response function by a non-linear regression method and the drug concentrations required to inhibit 50% incorporation of ^3 H-thymidine were determined [Antimicrob. Agents Chemother. 16:710 (1979); Exper. Parasitol. 66:86 (1988)].

[3] = system: trypanosomiasis; conditions: in vivo; cited from earlier work
[4] = system: leishmaniasis; conditions: Reviews of Infectious Diseases 10(3):576-577; Experimental Parasitology 52:409 (1981); cited from earlier work

Row | SMILES | anti-Leishmania activity (in words) [2] | IC50 ([2]; Leishmania mexicana) [µM] | other results
1 | N=C(N)c1ccc(OCCCCCOc2ccc(C(=N)N)cc2)cc1 [Example 4, pentamidine] | moderately effective against Leishmania |  | usefulness in treatment of Preumocystis carinii pneumonia (in words) [1]: extremely useful in the treatment of Preumocystis carinii pneumonia; usefulness for treatment of trypanosomiasis (in words) [3]: useful for the treatment of trypanosomiasis; utility for treating leishmaniasis (in words) [4]: limited utility for the purpose of treating leishmaniasis
2 | N=C(N)c1ccc(NCCCCCNc2ccc(C(=N)N)cc2)cc1 [Example 8] | high-degree of anti-Leishmania activity |  | 
3 | N=C(N)c1ccc(OCCCCCCOc2ccc(C(=N)N)cc2)cc1 [Example 9, hexamidine] | high-degree of anti-Leishmania activity |  | 
4 | c1cc(C2=NCCN2)ccc1OCCCCCOc1ccc(C2=NCCN2)cc1 [Example 15] |  | 0.67 | 
5 | CN1CCN=C1c1ccc(OCCCCCOc2ccc(C3=NCCN3C)cc2)cc1 [Example 16] |  |  | IC50 [2]: > 4.5 µM
6 | COc1cc(C2=NCCN2)ccc1OCCCOc1ccc(C2=NCCN2)cc1OC [Example 17] |  | > 4.5 | 
